Results: patent publication US20240109881A1, “Heteroaryl Compounds as Ligand Directed Degraders of IRAK4” (Bristol-Myers Squibb Company, priority 2022, published 2024)

Target: T1, IRAK4 (Homo sapiens, UniProt Q9NWZ3)
T1 construct: endogenous in cells; host or cells: THP-1 cells
T1 sequence (Q9NWZ3 1-460): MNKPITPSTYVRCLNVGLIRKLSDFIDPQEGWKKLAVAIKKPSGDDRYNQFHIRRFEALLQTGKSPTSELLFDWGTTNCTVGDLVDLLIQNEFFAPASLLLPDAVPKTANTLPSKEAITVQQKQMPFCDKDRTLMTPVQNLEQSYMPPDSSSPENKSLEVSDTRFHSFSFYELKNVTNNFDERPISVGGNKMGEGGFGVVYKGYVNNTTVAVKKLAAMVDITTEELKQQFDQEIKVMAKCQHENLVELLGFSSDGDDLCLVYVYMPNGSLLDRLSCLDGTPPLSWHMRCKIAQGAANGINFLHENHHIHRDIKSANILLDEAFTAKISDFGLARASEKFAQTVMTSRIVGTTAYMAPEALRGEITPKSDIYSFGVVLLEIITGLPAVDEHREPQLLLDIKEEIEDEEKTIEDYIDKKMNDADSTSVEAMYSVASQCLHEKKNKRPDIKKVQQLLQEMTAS
Test: LVL THP1 HTRF (THP1 Homogeneous Time Resolved Fluorescence)
Type: cell-based
Conditions: THP1 cells, 18 h incubation with compound; for DC50: read-out: LVL THP1 HTRF EC50
Summary of the method: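 THP-1 cells in phenol red-free RPMI with 10% FBS were dosed with compound (20 nL in DMSO) for 18 h at 37° C. After 2 h lysis, IRAK4 was detected with anti-IRAK4-d2/anti-IRAK4-K HTRF antibodies for 18 h at room temperature and read at 665/615 nm; a parallel CTG plate was run.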

| LVL THP1 HTRF YMIN | DC50 | SMILES |
| --- | --- | --- |
| 18.9% | 180 nM | C[C@H](C#N)Nc1cc(Nc2ncc(C#N)cn2)ncc1-n1cc([C@H]2CC[C@H](CCN3CCN(c4ccc(N5CCC(=O)NC5=O)cc4)CC3)CC2)nn1 [P-389] |
| −0.8% | 3.7 nM | CC(C)(O)CNc1cc(-n2ncc3cc(C#N)cnc32)ncc1-n1cc([C@H]2CC[C@H](CCN3CCN(c4ccc(C5CCC(=O)NC5=O)cc4)CC3)CC2)nn1 (some centres unmarked) [P-391] |
| −3.4% | 6.1 nM | CC[C@@H]1CN(CC[C@H]2CC[C@H](c3cn(-c4cnc(-n5ncc6cc(C#N)cnc65)cc4N[C@H](C)C#N)nn3)CC2)CCN1c1ccc(N2CCC(=O)NC2=O)cc1 [P-393] |
| 2.6% | 9.3 nM | CCNc1cc(-n2ncc3cc(C#N)cnc32)ncc1-n1cc([C@H]2CC[C@H](CCN3CCN(c4ccc(C5CCC(=O)NC5=O)cc4)CC3)CC2)nn1 (some centres unmarked) [P-395] |
| 6.2% | 14.3 nM | COc1cnc2c(cnn2-c2cc(N[C@H](C)C#N)c(-n3cc([C@H]4CC[C@H](CCN5CCN(c6ccc(C7CCC(=O)NC7=O)cc6)CC5)CC4)nn3)cn2)c1 (some centres unmarked) [P-397] |
| 5.8% | 24 nM | COc1cnc(Nc2cc(N[C@H](C)C#N)c(-n3cc([C@H]4CC[C@H](CCN5CCN(c6ccc(C7CCC(=O)NC7=O)cc6)CC5)CC4)nn3)cn2)nc1 (some centres unmarked) [P-398] |
| 8.2% | 43.1 nM | C[C@H](C#N)Nc1cc(-n2ncc3cc(C#N)cnc32)ncc1-n1cc([C@H]2CC[C@H](CCN3CCC(c4ccc(N5CCC(=O)NC5=O)cc4)C(F)C3)CC2)nn1 (some centres unmarked) [P-399] |
| 0.5% | 12 nM | C[C@H](C#N)Nc1cc(-n2ncc3cc(C#N)cnc32)ncc1-n1cc([C@H]2CC[C@H](CCN3CCC(c4ccc(N5CCC(=O)NC5=O)cc4)C(F)(F)C3)CC2)nn1 (some centres unmarked) [P-401] |
| 1.9% | 3.3 nM | N#Cc1cnc2c(cnn2-c2cc(N[C@H]3CCC[C@H]3O)c(-n3cc([C@H]4CC[C@H](CCN5CCN(c6ccc(C7CCC(=O)NC7=O)cc6)CC5)CC4)nn3)cn2)c1 (some centres unmarked) [P-402] |
| 3.7% | 2.5 nM | N#Cc1cnc2c(cnn2-c2cc(N[C@H]3CCC[C@@H]3O)c(-n3cc([C@H]4CC[C@H](CCN5CCN(c6ccc(C7CCC(=O)NC7=O)cc6)CC5)CC4)nn3)cn2)c1 (some centres unmarked) [P-403] |
| 1.7% | 7.6 nM | N#Cc1cnc2c(cnn2-c2cc(NC3CCOCC3)c(-n3cc([C@H]4CC[C@H](CCN5CCN(c6ccc(C7CCC(=O)NC7=O)cc6)CC5)CC4)nn3)cn2)c1 (some centres unmarked) [P-406] |
| 5.6% | 35.8 nM | N#Cc1cnc2c(cnn2-c2cc(NCC3CCOCC3)c(-n3cc([C@H]4CC[C@H](CCN5CCN(c6ccc(C7CCC(=O)NC7=O)cc6)CC5)CC4)nn3)cn2)c1 (some centres unmarked) [P-407] |
| 7.8% | 42.6 nM | N#Cc1cnc2c(cnn2-c2cc(NCC3COC3)c(-n3cc([C@H]4CC[C@H](CCN5CCN(c6ccc(C7CCC(=O)NC7=O)cc6)CC5)CC4)nn3)cn2)c1 (some centres unmarked) [P-408] |
| 8.3% | 82.5 nM | N#Cc1cnc2c(cnn2-c2cc(OC3CC3)c(-n3cc([C@H]4CC[C@H](CCN5CCN(c6ccc(C7CCC(=O)NC7=O)cc6)CC5)CC4)nn3)cn2)c1 (some centres unmarked) [P-409] |
| 90.4% | 1000 nM | N#Cc1cnc2c(cnn2-c2cc(OCC3CCOCC3)c(-n3cc([C@H]4CC[C@H](CCN5CCN(c6ccc(C7CCC(=O)NC7=O)cc6)CC5)CC4)nn3)cn2)c1 (some centres unmarked) [P-411] |
| 15.2% | 160 nM | N#Cc1cnc2c(cnn2-c2cc(NC3CCCC3)c(-n3cc([C@H]4CC[C@H](CCN5CCN(c6ccc(N7CCC(=O)NC7=O)cc6)CC5)CC4)nn3)cn2)c1 [P-412] |

| LVL THP1 HTRF YMIN | DC50 | SMILES |
| --- | --- | --- |
| −1.3% | 5.1 nM | C[C@H](C#N)Nc1cc(-n2ncc3cc(C#N)cnc32)ncc1-n1cc([C@H]2CC[C@H](CCN3CCC(c4ccn(C5CCC(=O)NC5=O)c(=O)c4)CC3)CC2)nn1 (some centres unmarked) [P-413] |
| 39.6% | 979 nM | C[C@H](C#N)Nc1cc(-n2ncc3cc(C#N)cnc32)ncc1-n1cc([C@H]2CC[C@H](CCN3CCN(Cc4ccc(N5CCC(=O)NC5=O)cc4)CC3)CC2)nn1 [P-422] |
| 8.6% | 143 nM | C[C@H](C#N)Nc1cc(-n2ncc3cc(C#N)cnc32)ncc1-n1cc([C@H]2CC[C@H](CCN3CCN(c4ccc(N5CCC(=O)NC5=O)nn4)CC3)CC2)nn1 [P-423] |
| 0.8% | 124 nM | C[C@H](C#N)Nc1cc(-n2ncc3cc(C#N)cnc32)ncc1C(=O)N[C@H]1CC[C@H](CCN2CCC(c3ccn(C4CCC(=O)NC4=O)c(=O)c3)CC2)CC1 (some centres unmarked) [P-425] |
| −0.6% | 3.2 nM | C[C@H](C#N)Nc1cc(-n2ncc3cc(C#N)c(N)nc32)ncc1-n1cc([C@H]2CC[C@H](CCN3CCN(c4ccc(N5CCC(=O)NC5=O)cn4)CC3)CC2)nn1 [P-428] |
| 1.8% | 1.3 nM | C[C@H](C#N)Nc1cc(-n2ncc3cc(C#N)cnc32)ncc1-n1cc([C@H]2CC[C@H](CCN3CC4(CC(c5ccc(N6CCC(=O)NC6=O)c(Cl)c5)C4)C3)CC2)nn1 [P-432] |
| 37.6% | 700 nM | C[C@H](C#N)Nc1cc(-n2ncc3cc(C#N)cnc32)ncc1C(=O)N[C@H]1CC[C@H](CCN2CC3(CC(c4ccc(N5CCC(=O)NC5=O)cc4)C3)C2)CC1 [P-433] |
| 1.9% | 29.9 nM | C[C@H](C#N)Nc1cc(Nc2ncc(C#N)cc2Cl)ncc1-n1cc([C@H]2CC[C@H](CCN3CC4(CC(c5ccc(N6CCC(=O)NC6=O)cc5)C4)C3)CC2)nn1 [P-434] |
| −5.4% | 0.3 nM | C[C@H](C#N)Nc1cc(-n2ncc3cc(C#N)cnc32)ncc1-n1cc([C@H]2CC[C@H](CCN3CCN(c4ccc(N5CCC(=O)NC5=O)c(F)c4)[C@H](C)C3)CC2)nn1 [P-436] |
| 0.0% | 0.4 nM | C[C@H](C#N)Nc1cc(-n2ncc3cc(C#N)cnc32)ncc1-n1cc([C@H]2CC[C@H](CCN3CCN(c4ccc(N5CCC(=O)NC5=O)c(Cl)c4)[C@H](C)C3)CC2)nn1 [P-437] |
| 2.2% | 3.4 nM | C[C@H](C#N)Nc1cc(-n2ncc3cc(C#N)cnc32)ncc1-n1cc([C@H]2CC[C@H](CCN3CCN(c4ncc(N5CCC(=O)NC5=O)cn4)[C@H](C)C3)CC2)nn1 [P-438] |
| 11.2% | 92.4 nM | C[C@H](C#N)Nc1cc(-n2ncc3cc(C#N)cnc32)ncc1-n1cc([C@H]2CC[C@H](CCN3CCC4(C3)CN(c3ccc(N5CCC(=O)NC5=O)cc3)C4)CC2)nn1 [P-439] |
| 2.9% | 53.7 nM | C[C@H](C#N)Nc1cc(-n2ncc3cc(C#N)cnc32)ncc1-n1cc([C@H]2CC[C@H](CCN3CCN(c4cnc(N5CCC(=O)NC5=O)cn4)[C@H](C)C3)CC2)nn1 [P-440] |
| −0.1% | 2.6 nM | CC[C@@H]1CN(CC[C@H]2CC[C@H](c3cn(-c4cnc(-n5ncc6cc(C#N)cnc65)cc4N[C@H](C)C#N)nn3)CC2)CCN1c1ccc(N2CCC(=O)NC2=O)cc1 [P-441] |
| −2.0% | 4.4 nM | CC[C@H]1CN(CC[C@H]2CC[C@H](c3cn(-c4cnc(-n5ncc6cc(C#N)cnc65)cc4N[C@H](C)C#N)nn3)CC2)CCN1c1ccc(C2CCC(=O)NC2=O)cc1 (some centres unmarked) [P-442] |
